Values after ≈ are worked out from the molar mass of the structure shown. “Also recorded” adds a separate entry of the source. Where two headings read alike, the source gives them in different places. Blank lines part the entries; values can stand above or below the molecule they belong to.
Legend:
[1] = tested on: rats; test: Turpentine-induced pleuritis in rats (Hurley); type: in vivo; settings: for Exudate / Inhibition: P <0.01
[2] = tested on: isolated Guinea-pig trachea; test: Relaxation of the isolated Guinea-pig trachea (Costantine); type: cell-based; settings: for activation at 125 µg/mL: 125 μg/ml; for activation at 125 µg/mL / activation at 500 µg/mL / activation at 2000 µg/mL: average of 4 preparations; for activation at 500 µg/mL: 500 μg/ml; for activation at 2000 µg/mL: 2,000 μg/ml; for relaxation of the smooth tracheal muscles, intensity compared with Fraction 2 and sobrerol (in words): in vitro, isolated Guinea-pig trachea; for bronchodilating activity, grade (in words): overall, in vitro and in vivo
[3] = tested on: rabbits; test: Inhibition of histamine-induced bronchospasm by intravenous perfusion in rabbits; type: in vivo; settings: for Percentage of inhibition of the histamine-induced bronchospasm: histamine 100 micrograms/kg i.v., average of 4 animals
[4] = tested on: rats; test: Carrageenin-induced paw oedema in rats (Winter); type: in vivo, albino rats, COBS (Charles River) stock; settings: for % inhibition of plantar oedema: after 4 hours, 6 animals; for anti-inflammatory action, grade (in words): overall summary
[5] = tested on: thrombocyte aggregation; test: Inhibition of thrombocyte aggregation from ADP in vitro (Born and Cross); type: cell-based; settings: for inhibition of thrombocyte aggregation compared with Fraction 2 and sobrerol (in words): 160 to 1,280 micrograms/ml, ADP, in vitro; for inhibition at 160 µg/mL: final concentration 160 μg/ml; for inhibition at 160 µg/mL / inhibition at 320 µg/mL / inhibition at 640 µg/mL / inhibition at 1280 µg/mL: average of repeated tests; for inhibition at 320 µg/mL: final concentration 320 μg/ml; for inhibition at 640 µg/mL: final concentration 640 μg/ml; for inhibition at 1280 µg/mL: final concentration 1280 μg/ml
[6] = tested on: Staphylococcus aureus; test: Antibacterial activity (MIC), Staphylococcus aureus; type: cell-based; settings: for antibacterial activity, grade (in words): Gram-positive germs / overall; for antibacterial activity compared with Fraction 2 and sobrerol (in words): Staphylococcus aureus and Escherichia coli; for MIC: read-out: Minimum Inhibiting Concentration (MIC)
[7] = tested on: Escherichia coli; test: Antibacterial activity (MIC), Escherichia coli; type: cell-based; settings: for MIC: read-out: Minimum Inhibiting Concentration (MIC); for antibacterial activity, grade (in words): Gram-negative germs
[8] = Acute toxicity in rabbits (LD50, Litchfield and Wilcoxon); type: in vivo; settings: rabbit, in vivo, fiducial limits 95%
[9] = tested on: rabbits; test: as above; type: in vivo
[10] = tested on: isolated Guinea-pig trachea; test: Inhibition of histamine-induced contractions of the isolated Guinea-pig trachea; type: cell-based; settings: histamine 10^-5 M, average
From the text: In addition, at concentrations in the range of from 10^-3 M to 5.10^-3 M, it inhibits the histamine-induced contractions of the isolated Guinea-pig trachea (Histamine 10^-5 M, see TABLE 3).

[11] = tested on: dogs; test: Reduction of lung resistance in anesthetized dogs (Diamond); type: in vivo; settings: intravenous; for Percentage reduction of the Lung Resistance: average for 4 animals
[12] = tested on: red blood cells of rats; test: Protection of red blood cells from haemolysis induced by Tween 80, in vitro; type: cell-based; settings: for EC50: Rattus norvegicus, Erythrocyte, Tween 80
From the text: (fiducial limits 95% : 518.0-760.11).

[13] = tested on: mice; settings: for Gleason classification: mice
[14] = in vivo; settings: mouse, LD50, mice, fiducial limits 95%
[15] = Acute toxicity in rats (LD50, Litchfield and Wilcoxon); settings: rat, in vivo, iv, intravenously
[16] = Cavia porcellus, read-out: Percentage of relaxation of the isolated Guinea-pig trachea
[17] = intravenous perfusion 15 minutes
[18] = intravenous perfusion 30 minutes
[19] = intravenous perfusion 60 minutes
[20] = 30 mg/kg b.w. intraperitoneally
[21] = read-out: Thrombocyte aggregation % INHIBITION
[22] = perfused intravenously 2.5 mls per kg b.w. per minute

SMILES: CC(=O)Oc1ccccc1C(=O)O [Aspirin, aspirin, reference compound]
- Exudate ([1]; 100 mgs/kg intraperitoneal): 1.30 mls.
- Inhibition ([1]; 100 mgs/kg intraperitoneal): 34%

SMILES: CC1=CCC(C(C)(C)O)CC1O (centres unmarked) [Sobrerol, sobrerol, reference compound]
- percent relaxation of trachea at 125 µg/mL [2, 16]: 1.87%
- percent relaxation of trachea at 500 µg/mL [2, 16]: 5.62%
- percent relaxation of trachea at 2000 µg/mL [2, 16]: 20.8%
- Percentage of inhibition of the histamine-induced bronchospasm [3, 17]: 2.15%
- Percentage of inhibition of the histamine-induced bronchospasm [3, 18]: 1.15%
- Percentage of inhibition of the histamine-induced bronchospasm [3, 19]: 3.97%
- % inhibition of plantar oedema [4, 20]: 11%
- inhibition at 1000 µg/mL [5, 21]: 4%
- inhibition at 1500 µg/mL [5, 21]: 12%
- inhibition at 2000 µg/mL [5, 21]: 24%
- inhibition at 4000 µg/mL [5, 21]: 32%
- Minimum Inhibiting Concentration (MIC) ([6]; Staphylococcus aureus): .infin.
- Minimum Inhibiting Concentration (MIC) ([7]; Escherichia coli): .infin.

SMILES: CC1=CC(=O)[C@@H]2C[C@H]1C2(C)C [Verbenone, verbenone]
- LD50 ([8]; ip, female): 232 mg/kg
- LD50 ([8]; ip, male): 310 mg/kg
- LD50 ([8]; po, female): 655 mg/kg
- LD50 ([8]; po, male): 790 mg/kg
- Gleason classification ([9]; i.p.): Poor
- Gleason classification ([9]; p.o.): Poor
- activation at 125 µg/mL [2, 16]: 26.2%
- activation at 500 µg/mL [2, 16]: 61.2%
- activation at 2000 µg/mL [2, 16]: 71.4%
- relaxation of the smooth tracheal muscles, intensity compared with Fraction 2 and sobrerol (in words) [2]: significantly higher than that of the terpenes of the fraction 2 and also than that of sobrerol
- bronchodilating activity, grade (in words) [2]: pronounced bronchodilating action; also recorded: pronounced bronchodilating activity
- Percentage of inhibition of the histaminic spasm due to relaxation of the smooth tracheal muscles ([10]; 5.10^-3 M): 96.8%
- inhibition at 1000 µM ([10]; Cavia porcellus, 10^-3 M, read-out: Percentage of inhibition of the histaminic spasm due to relaxation of the smooth tracheal muscles): 29.2%
- Percentage reduction of the Lung Resistance ([11]; 0.6 mgs/kg b.w.): 7.175%
- reduction of the lung resistances (in words) ([11]; 0.6 to 4.8 mgs/kg b.w.): pronounced reduction of the lung resistances
- Percentage reduction of the Lung Resistance ([11]; 1.2 mgs/kg b.w.): 10.85%
- Percentage reduction of the Lung Resistance ([11]; 2.4 mgs/kg b.w.): 22.225%
- Percentage reduction of the Lung Resistance ([11]; 4.8 mgs/kg b.w.): 30.6%
- Percentage of inhibition of the histamine-induced bronchospasm [3, 17]: 36.25%
- Percentage of inhibition of the histamine-induced bronchospasm [3, 18]: 46.27%
- Percentage of inhibition of the histamine-induced bronchospasm [3, 19]: 73.32%
- inhibition of histamine-induced bronchospasm compared with Fraction 2 and sobrerol (in words) [3, 22]: statistically higher than that of the terpenes of the fraction 2 and also than that of sobrerol
- % inhibition of plantar oedema [4, 20]: 29%
- inhibition of carrageenin paw oedema compared with Fraction 2 and sobrerol (in words) ([4]; normal and suprarenalectomized rats, 30 mg/kg b.w. intraperitoneally): significantly improved over those of the fraction 2 and of sobrerol
- antiexudative activity compared with aspirin (in words) ([1]; 36 and 120 mg/kg b.w. intraperitoneally): intense antiexudative activity in the experimental, turpentine-induced pleuritis (Hurley, J. V. et al., J. Path., 91, 575,1966) to a degree which can be compared to that of aspirin
- Exudate ([1]; 36 mgs/kg intraperitoneal): 1.23 mls.
- Inhibition ([1]; 36 mgs/kg intraperitoneal): 37.6%
- Exudate ([1]; 120 mgs/kg intraperitoneal): 0.97 mls.
- Inhibition ([1]; 120 mgs/kg intraperitoneal): 50.1%
- EC50 ([12]; fiducial limits 95%: 518.0-760.11, read-out: effective concentration 50% (EC 50), protection from haemolysis): 640 µg/mL (≈ 4.26 mM)
- inhibition of thrombocyte aggregation compared with Fraction 2 and sobrerol (in words) [5]: higher than that of the terpenes of the Fraction 2 and of sobrerol
- inhibition at 160 µg/mL [5]: 0%
- inhibition at 320 µg/mL [5]: 6%
- inhibition at 640 µg/mL [5]: 44%
- inhibition at 1280 µg/mL [5]: 100%
- antibacterial activity, grade (in words) [6]: poor antibacterial activity
- antibacterial activity compared with Fraction 2 and sobrerol (in words) [6]: as active as Fraction 2 and more active than sobrerol
- MIC ([6]; Staphylococcus aureus): 800 µg/mL (≈ 5.33 mM)
- MIC ([7]; Escherichia coli): 800 µg/mL (≈ 5.33 mM)
- antibacterial activity, grade (in words) [7]: poor antibacterial activity
- tolerability on the basis of acute toxicity data ([13]; mice and rabbits, i.p. and p.o.): well tolerated
- Gleason classification ([13]; i.p.): Poor
- Gleason classification ([13]; p.o.): Slight
- LD50 ([14]; ip, female): 325 mg/kg
- LD50 ([14]; ip, male): 361 mg/kg
- LD50 ([14]; po, female): 1530 mg/kg
- LD50 ([14]; po, male): 1410 mg/kg

- MIC ([6]; Staphylococcus aureus): 200 µg/mL (≈ 1.33 mM)
- MIC ([7]; Escherichia coli): 800 µg/mL (≈ 5.33 mM)
SMILES: CC1(C)C2CC=C(C=O)C1C2 (centres unmarked) [Myrtenal, myrtenal]
- activation at 125 µg/mL [2, 16]: 7.5%
- activation at 500 µg/mL [2, 16]: 47.5%
- activation at 2000 µg/mL [2, 16]: 62.5%
- relaxation of the smooth tracheal muscles, intensity compared with Fraction 2 and sobrerol (in words) [2]: statistically higher than that of the Fraction 2 and that of sobrerol
- bronchodilating activity, grade (in words) [2]: fair bronchodilating activity
- Percentage of inhibition of the histamine-induced bronchospasm [3, 17]: 25.4%
- Percentage of inhibition of the histamine-induced bronchospasm [3, 18]: 20.4%
- Percentage of inhibition of the histamine-induced bronchospasm [3, 19]: 28.8%
- inhibition of histamine-induced bronchospasm compared with Fraction 2 and sobrerol (in words) [3, 22]: statistically higher than that of sobrerol and slightly lower than that of Fraction 2
- % inhibition of plantar oedema [4, 20]: 30%
- anti-inflammatory action, grade (in words) [4]: anti-inflammatory action of poor magnitude
- inhibition of carrageenin paw oedema compared with Fraction 2 and sobrerol (in words) ([4]; rats, 30 mg/kg b.w. intraperitoneally): more intense than that of Fraction 2 and also than that of sobrerol
- EC50 ([12]; 80 to 500 micrograms/ml, fiducial limits 95%=112.3-189.9, read-out: Effective Concentration 50%, protection from haemolysis): 157 µg/mL (≈ 1.05 mM)
- inhibition of thrombocyte aggregation compared with Fraction 2 and sobrerol (in words) [5]: higher than those of Fraction 2 and sobrerol
- inhibition at 160 µg/mL [5]: 0%
- inhibition at 320 µg/mL [5]: 12%
- inhibition at 640 µg/mL [5]: 20%
- inhibition at 1280 µg/mL [5]: 75%
- antibacterial activity, grade (in words) [6]: pronounced antibacterial activity on Gram-positive germs
- antibacterial activity, grade (in words) ([6]; listed as myrtenal): marked antibacterial action
- antibacterial activity compared with Fraction 2 and sobrerol (in words) [6]: more active both than Fraction 2 and sobrerol
- antibacterial activity, grade (in words) [7]: less intense on Gram-negative ones

SMILES: C=C1C(O)CC2CC1C2(C)C (centres unmarked) [Pinocarveol, pinocarveol]
- LD50 [15]: 140 mg/kg
- relaxation of the smooth tracheal muscles, intensity compared with Fraction 2 and sobrerol (in words) [2]: statistically higher than that of sobrerol and which can be compared to that of Fraction 2
- bronchodilating activity, grade (in words) [2]: fair bronchodilating action; also recorded: poor bronchodilating action
- inhibition of histamine-induced bronchospasm compared with Fraction 2 and sobrerol (in words) ([3]; perfused intravenously 2.5 milligrams per kilogram and per minute): statistically higher than those of FRACTION 2 and of sobrerol
- anti-inflammatory action, grade (in words) [4]: pronounced anti-inflammatory action
- inhibition of carrageenin paw oedema compared with Fraction 2 and sobrerol (in words) ([4]; rats, 30 mg/kg intravenously): more intense than those of Fraction 2 and of sobrerol
- EC50 ([12]; 20 to 200 micrograms/ml, fiducial limits 95%=111.5-153.04, read-out: Effective Concentration 50% (EC 50), protection from haemolysis): 132 µg/mL (≈ 0.869 mM)
- antihaemolytic activity, grade (in words) ([12]; overall summary): pronounced antihaemolytic activity
- inhibition of thrombocyte aggregation compared with Fraction 2 and sobrerol (in words) [5]: exceeds that of the terpenes of the Fraction 2 and that of sobrerol
- antiaggregative action, grade (in words) ([5]; overall summary): conspicuous antiaggregative action
- antibacterial activity, grade (in words) [6]: poor antibacterial activity; also recorded: poor antibacterial action
- antibacterial activity compared with Fraction 2 and sobrerol (in words) [6]: more active than sobrerol and as active as Fraction 2
- MIC ([6]; Staphylococcus aureus): 800 µg/mL (≈ 5.25 mM)
- MIC ([7]; Escherichia coli): 800 µg/mL (≈ 5.25 mM)
- antibacterial activity, grade (in words) [7]: poor antibacterial activity
